The values below come from ChEMBL document CHEMBL5532638, “Current development of 1,2,3-triazole derived potential antimalarial scaffolds: Structure- activity relationship (SAR) and bioactive compounds” (Eur J Med Chem, 2023).

A word on the IC50: it is the concentration that inhibits the measured activity by half. The term CC50 denotes the concentration giving 50% cytotoxicity.

Series [1] concerns the target Plasmepsin II (Plasmodium falciparum, UniProt P46925). As to the kind of experiment: Inhibition of Plasmodium falciparum Plm-II using DABCYL-Glu-Arg-Nle-Phe-Leu-Ser-Phe-Pro-EDANS as substrate preincubated for 30 mins followed by substrate addition measured after 8 to 15 mins by FRET assay.
Series [2] deals with Plasmodium falciparum. Briefly: Antiplasmodial activity against CQ-sensitive Plasmodium falciparum F32 Tanzania assessed as parasite growth inhibition incubated for 48 hrs. The format is functional, organism-based, RBC. Particulars: Erythrocyte.
Series [3] has as its system Plasmodium falciparum. As to the kind of experiment: Antiplasmodial activity against CQ-resistant Plasmodium falciparum FCR-3/Gambia subline F-86 infected in erythrocytes assessed as parasite growth inhibition incubated for 24 hrs by [3H]-hypoxanthine incorporation assay. Particulars: FCR-3/Gambia subline F-86, Erythrocyte. Type of series: functional, organism-based.

The test system of series [4] is Plasmodium falciparum. Briefly: Antiplasmodial activity against CQ-resistant Plasmodium falciparum W2 infected in red blood cells assessed as parasite growth inhibition incubated for 72 hrs by SYBR Green I staining based analysis. The format is functional, organism-based, Red blood cell. Particulars: W2, Erythrocyte.
Series [5] relates to Plasmodium falciparum. As to the kind of experiment: Antiplasmodial activity against CQ-sensitive Plasmodium falciparum 3D7 infected in red blood cells assessed as parasite growth inhibition incubated for 72 hrs by SYBR Green I staining based analysis. Type of series: functional, organism-based, Red blood cell. The conditions noted are these: 3D7, Erythrocyte.
Series [6] relates to Plasmodium falciparum. As to the kind of experiment: Antiplasmodial activity against CQ-resistant Plasmodium falciparum RKL-9 at trophozoite stage infected in human O+ RBCs assessed as parasite growth inhibition by SYBR Green I staining based analysis. Type of series: functional, organism-based, RBC. The conditions noted are these: RKL-9, Erythrocyte.
In series [7] the test system is Plasmodium falciparum. Briefly: Antiplasmodial activity against CQ-sensitive Plasmodium falciparum 3D7 at trophozoite stage infected in human O+ RBCs assessed as parasite growth inhibition by SYBR Green I staining based analysis. The conditions noted are these: 3D7, Erythrocyte. The format is functional, organism-based, RBC.
The test system of series [8] is Plasmodium falciparum. Briefly: Antiplasmodial activity against CQ-resistant Plasmodium falciparum K1 assessed as parasite growth inhibition. The format is functional, organism-based.
Series [9] is described as follows: Cytotoxicity against African green monkey Vero cells. The format is toxicity, cell-based. Particulars: chlorocebus sabaeus.
Series [10] has as its system Plasmodium falciparum. Briefly: Antiplasmodial activity against CQ-sensitive Plasmodium falciparum 3D7 assessed as parasite growth inhibition. Type of series: functional, organism-based.
In series [11] the test system is Plasmodium falciparum. As to the kind of experiment: Antiplasmodial activity against Plasmodium falciparum 3D7 assessed as parasite growth inhibition incubated for 24 hrs by [3H]-hypoxanthine incorporation assay. Type of series: functional, organism-based.
For series [12], the system named is Plasmodium falciparum. As to the kind of experiment: Antiplasmodial activity against CQ-resistant Plasmodium falciparum 2/K-1 infected in human O+ red blood cells assessed as parasite growth inhibition incubated for 72 hrs by Malstat assay. The format is functional, organism-based, Red blood cell. The conditions noted are these: 2/K-1, Erythrocyte.
The test system of series [13] is Plasmodium falciparum. Briefly: Antiplasmodial activity against Plasmodium falciparum K1 infected in O+ RBCs assessed as parasite growth inhibition incubated for 36 to 40 hrs by Geimsa staining based analysis. Type of series: functional, organism-based, RBC. The conditions noted are these: K1, Erythrocyte.
Series [14] has as its system Plasmodium falciparum. Briefly: Antimalarial activity against CQ-resistant Plasmodium falciparum RKL-9 field isolate at asexual stage assessed as parasite growth inhibition incubated for 22 to 36 hrs by SMI assay. The format is functional, organism-based.
Series [15] can be described thus: Selectivity index, ratio of CC50 for human erythrocytes to IC50 for Plasmodium falciparum Dd2. Particulars: read-out: Ratio CC50/IC50. Type of series: toxicity.
Series [16] concerns the target T1, Falcipain 2 (Plasmodium falciparum, UniProt Q9N6S8).
T1 sequence (Q9N6S8 whole entry): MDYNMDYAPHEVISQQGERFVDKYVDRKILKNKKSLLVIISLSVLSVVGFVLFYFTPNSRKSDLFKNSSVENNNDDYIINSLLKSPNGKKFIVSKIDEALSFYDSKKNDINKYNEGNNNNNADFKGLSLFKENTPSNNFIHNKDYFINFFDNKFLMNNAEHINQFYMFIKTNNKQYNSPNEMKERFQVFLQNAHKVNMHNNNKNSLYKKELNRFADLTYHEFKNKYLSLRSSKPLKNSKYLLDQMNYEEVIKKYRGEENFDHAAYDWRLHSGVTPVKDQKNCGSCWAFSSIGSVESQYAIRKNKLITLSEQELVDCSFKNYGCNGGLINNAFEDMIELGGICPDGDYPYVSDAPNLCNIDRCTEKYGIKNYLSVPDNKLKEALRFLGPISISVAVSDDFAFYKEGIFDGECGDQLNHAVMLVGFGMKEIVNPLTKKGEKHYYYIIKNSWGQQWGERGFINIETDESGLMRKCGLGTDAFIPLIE
As to the kind of experiment: Inhibition of recombinant Plasmodium falciparum FP2.

For series [17], the system named is Plasmodium falciparum. Briefly: Antiplasmodial activity against Plasmodium falciparum 3D7 assessed as parasite growth inhibition. The format is functional, organism-based.
A short description of series [18]: Cytotoxicity against human Huh-7 cells incubated for 48 hrs by MTT assay. The format is toxicity, cell-based.

In brackets after ≈: the same amount, converted by molar mass.

Sequence of Plasmepsin II (P46925 whole entry): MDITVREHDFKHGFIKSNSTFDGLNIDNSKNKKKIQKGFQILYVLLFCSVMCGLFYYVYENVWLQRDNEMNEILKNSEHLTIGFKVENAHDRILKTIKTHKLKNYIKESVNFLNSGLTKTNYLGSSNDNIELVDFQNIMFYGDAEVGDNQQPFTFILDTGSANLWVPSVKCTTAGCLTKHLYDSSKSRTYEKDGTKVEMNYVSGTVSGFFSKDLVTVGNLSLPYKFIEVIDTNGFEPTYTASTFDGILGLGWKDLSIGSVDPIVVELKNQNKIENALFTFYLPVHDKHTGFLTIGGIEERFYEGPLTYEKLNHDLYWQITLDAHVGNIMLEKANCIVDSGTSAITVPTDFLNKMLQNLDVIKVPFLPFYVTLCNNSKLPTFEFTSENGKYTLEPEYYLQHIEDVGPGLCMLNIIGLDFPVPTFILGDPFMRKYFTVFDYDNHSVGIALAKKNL

The compound `CCCCCc1ccc(-n2nnc(CCN3CCCC3)c2Cc2ccc(-c3ccc(OC)cc3)cc2)cc1` had an IC50 in series [1] of 600 nM.
Turning to `COc1ccc(-n2cc(COC3=CC(=O)c4ccccc4C3=O)nn2)cc1F`, the IC50 in [2] was 800 nM.
Consider `C[C@H]1[C@@H](n2cc(-c3cccc(Cl)c3)nn2)O[C@@H]2O[C@]3(C)CC[C@H]4[C@H](C)CC[C@@H]1[C@@]24OO3`, for which, in series [3], the IC50 came to 3.7 nM.
For `OB1OCc2cc(OCc3cn(CCCNc4ccnc5cc(Cl)ccc45)nn3)ccc21`, the IC50 in [4] worked out at 3910 nM; in [5], 4130 nM.
As to `Cc1ccccc1C(=O)/C=C/c1cn(Cc2cn(-c3ccnc4cc(Cl)ccc34)nn2)c2ccccc12`, the IC50 in [6] worked out at 2700 nM; in series [7], 1800 nM.
On to `COc1cc(/C=C/C(=O)c2ccc(Cl)cc2)ccc1OCc1cn(-c2ccnc3cc(Cl)ccc23)nn1`, for which the IC50 in [8] was found to be 3140 nM. For the same compound, the CC50 in series [9] amounted to 46200 nM.
For `COc1ccccc1C(=O)/C=C/c1cn(Cc2cn(-c3ccnc4cc(Cl)ccc34)nn2)c2ccccc12`, the IC50 in series [6] came to 3500 nM; in series [7] it was 2400 nM.
`O=C(Cn1cc(-c2ccccc2)nn1)c1ccccc1`: the half-maximal inhibitory concentration (IC50) in [10] came to 1290 nM.
Take `Cc1cc(C)nc(NS(=O)(=O)c2ccc(-n3cc(COc4ccc(Cl)cc4Cl)nn3)cc2)n1`: the IC50 in [11] is 16.7 µg/mL (≈ 33 µM).
As to `ClCCCCn1cc(-c2ccccc2)nn1`, in [10], the IC50 worked out at 3290 nM.
In the case of `CCc1nnc2ccc(S(=O)(=O)N(Cc3cccc(F)c3)c3ccc(OC)cc3)cn12`, the half-inhibitory concentration (IC50) in series [12] turned out to be 4980 nM.
In the case of `C=C[C@H]1CN2CC[C@H]1C[C@@H]2[C@@H](c1ccnc2ccc(OC)cc12)n1cc(CCCCCCCCCCCCCC)nn1`, the IC50 in series [13] is 280 nM.
On to `O=C1C=C(OCc2cn(-c3ccccc3)nn2)C(=O)c2ccccc21`, for which, in [2], the IC50 came out at 1200 nM.
As to `C=C[C@H]1CN2CC[C@H]1C[C@@H]2[C@@H](c1ccnc2ccc(OC)cc12)n1cc(CN2CCCC2C(=O)OCC)nn1` (stereo not given in full), the IC50 in series [13] was 330 nM.
In the case of `O=S(=O)(c1ccc(-n2cc(COc3ccc(I)cc3)nn2)cc1)N1CCN(c2ccccc2)CC1`, in series [11], the half-maximal inhibitory concentration (IC50) was determined as 12.9 µg/mL (≈ 21.4 µM).
For `O=C(Cn1cc(COc2ccccc2)nn1)NCCCNc1ccnc2cc(Cl)ccc12`, in series [14], the half-maximal inhibitory concentration (IC50) was 75 nM.
For `C[C@H](Cn1cc(C(C)(C)O)nn1)C1CCC2[C@@H](O)CCC[C@]12C` (stereo not given in full), the IC50 in [10] was 20 nM.
As to `O=[N+]([O-])c1ccc(Cn2cc(CO)nn2)cc1`, the selectivity ratio in series [15] was determined as 161.
`O=C(Cn1cc(COc2ccc(Cl)cc2)nn1)NCCNc1ccnc2cc(Cl)ccc12`: the IC50 in series [14] is below 100 nM.
On to `CCCCCc1ccc(-n2nnc(CCN(CC)CC)c2Cc2ccc(-c3ccc(OC)cc3)cc2)cc1`, for which the IC50 in series [1] turned out to be 600 nM.
On to `C=C[C@H]1CN2CC[C@H]1C[C@@H]2[C@@H](c1ccnc2ccc(OC)cc12)n1cc(C[C@H](N)C(=O)O)nn1`, for which the IC50 in [13] is 250 nM.
For the compound `C[C@@H]1[C@@H](n2cc(-c3cccc(Cl)c3)nn2)O[C@@H]2O[C@]3(C)CC[C@H]4[C@H](C)CC[C@@H]1[C@@]24OO3`, in series [3], the IC50 worked out at 2.5 nM.
For the compound `O=c1n(Cc2cccc(Cl)c2)nc2c(S(=O)(=O)N3CCCCC3)cccn12`, the IC50 in series [12] turned out to be 2240 nM.
With `CCCCCc1ccc(-n2nnc(CCN3CCN(C)CC3)c2Cc2ccc(-c3ccc(OC)cc3)cc2)cc1`, the IC50 in series [1] worked out at 1800 nM.
Turning to `O=[N+]([O-])c1ccc(-n2cc(COc3cccc4nc(Cl)ccc34)nn2)cc1`, the IC50 in series [16] was 16200 nM; in [17], 49900 nM.
For `Cc1ccc(OCc2cn(-c3ccc(S(N)(=O)=O)cc3)nn2)cc1`, in [18], the CC50 at 48 h came to 7.5 µg/mL (≈ 21.8 µM). In series [11], the IC50 was found to be 6.2 µg/mL (≈ 18 µM).
`C=C[C@H]1CN2CC[C@H]1C[C@@H]2[C@@H](c1ccnc2ccc(OC)cc12)n1cc(CCCCCC)nn1`: the IC50 in series [13] worked out at 280 nM.
On to `C[C@H]1[C@H](n2nncc2-c2cccc(Cl)c2)O[C@@H]2O[C@]3(C)CC[C@H]4[C@H](C)CC[C@@H]1[C@@]24OO3`, for which the half-inhibitory concentration (IC50) in series [3] came to 4.2 nM.
Take `O=C(Cn1cc(Oc2ccc(Cl)cc2)nn1)NCCNc1ccnc2cc(Cl)ccc12`: the IC50 in series [14] came out at 8.5 nM.
